Here are results for 6 compounds from paper PMC4055232 (Malaria Journal, 2014).

Like-named read-outs stand apart in the source and are kept apart here. Marks after values point to notes of the source that are not given here.

A short description of data set [1]: Pharmacokinetics of probe drug cocktail (bupropion, midazolam) and their metabolites before and after QHS-PQ. The note with it: for Tmax / T max: value (range); for Geometric mean ratio (90% CI) of AUC 0-t /dose / Geometric mean ratio (90% CI) of C max / Geometric mean ratio (90% CI) of CL/F / Geometric mean ratio (90% CI) of MRT: 2-day (after QHS-PQ) versus 1-day (day -14); for AUC 0-t /dose: mean ± sd. Format: in vivo, human. As for the experimental part: The chromatography was performed at 22°C. The mobile phase consisted of B (acetonitrile) and A (0.1% formic acid in water), which increased linearly from 20% B to 90% B during 7 min before column re-equilibration at a flow rate of 0.3 mL/min.
Plasma samples were subjected to a protein precipitation extraction process. A 100 μL aliquot of human plasma was mixed with 25 μL of acetonitrile and 200 μL of IS (1 μM of alprazolam, prepared in acetonitrile). The mixture was mixed and centrifuged at 3,000 g for 10 min. Aliquots (20 μL) of the solution were injected onto LC-MS analysis. […] This mixture was treated as above. […] Plasma samples were diluted with blank plasma and reanalysed when the concentration of any analyte was higher than the upper limit of quantification.
Venous blood samples (2 mL) for analysis of probe drugs and their metabolites were taken from an indwelling intravenous catheter at 0, 0.25, 0.75, 1.5, 2.0, 3.0, 4.0, 5.0, 7.0, 11.0, 24.0, 36.0, and 48.0 hours.
(§1) The peak plasma concentration (Cmax) and time-to-peak concentration (Tmax) were obtained from experimental observations. The other pharmacokinetic parameters were analysed by non-compartmental model using the program TOPFIT (version 2.0; Thomae GmbH, Germany). The area under the plasma concentration-time curve (AUC o-t ) was calculated using the linear trapezoidal rule to approximately the last point. The mean residence time (MRT) was obtained by dividing the area under the first moment-time curve (AUMC 0-t ) by the area under the curve (AUC 0-t ). Total oral body clearance (CL/F) was calculated as dose/AUC 0-t .
(§2) Results were expressed as mean ± SD. The two-tailed t-test was used for paired comparison of the pharmacokinetic parameters between the single dose and multiple doses after logarithmic transformation. Geometric mean ratios with 90% confidence intervals (CIs) were calculated after log transformation of within-subject data. The comparison of Tmax for the different treatment groups was performed using the Wilcoxon signed-rank test. The acceptable level of significance was established at P < 0.05 or P < 0.01.

The subject of a further data set is CAR1/3. The following applies: cited from earlier work.
In another data set the test system is PXR. The note with it: cited from earlier work.
Data set [2] is described as follows: Bench-top stability of QC samples in human plasma on ice. Format: in vitro ADME. The note with it: human plasma on ice for at least 2 hours; difference < 15%.
Data set [3] is described as follows: Pharmacokinetics of QHS and its phase I/II metabolites in plasma after oral QHS-PQ (Artequick). The following applies: for AUC 0-t /dose / Cmax / MRT / CL/F: mean ± sd; for Cmax / MRT / Tmax: in vivo; for Cmax: C max; for Tmax: T max. As for the experimental part: The chromatography was performed at 22°C. The mobile phase consisted of acetonitrile and 5 mM aqueous ammonium acetate containing 0.1% (v/v) formic acid, delivered at a flow rate of 0.35 mL/min. The gradient chromatographic conditions were shown in the previous report. The autosampler was set at 4°C.
Plasma samples were subjected to a protein precipitation extraction process, which was performed on ice. A 100 μL aliquot of human plasma was mixed with 25 μL of acetonitrile and 200 μL of IS (1 μM of ARM, prepared in acetonitrile). The mixture was mixed and centrifuged at 3,000 g for 10 min. Aliquots (20 μL) of the solution were injected onto LC-MS analysis. […] This mixture was treated as above.
Plasma was separated by centrifugation at 3,000 g for 10 min at 4°C. The plasma was stored at -80°C until analysis.
as §1, §2

The conditions of data set [4]: cited from earlier work.
Where [5] appears, read: human, plasma, oral, row '1-day': probe cocktail before QHS-PQ (day -14).
Setting [6] is: human, plasma, oral, row '1-day': probe cocktail before QHS-PQ (day -14), read-out: CL/F (converted).
Where [7] appears, read: human, plasma, oral, row '1-day': probe cocktail before QHS-PQ (day -14), read-out: MRT.
Where [8] appears, read: human, plasma, oral, row '2-day': probe cocktail after second dose of QHS-PQ.
Where [9] appears, read: human, plasma, oral, row '2-day': probe cocktail after second dose of QHS-PQ, read-out: CL/F (converted).
The mark [10] stands for this setting: human, plasma, oral, row '2-day': probe cocktail after second dose of QHS-PQ, read-out: MRT.
Where [11] appears, read: human, po, 2-day oral QHS-PQ, value (range).
Where [12] appears, read: listed as '1-day': oral probe cocktail (bupropion 75 mg, midazolam 15 mg) on day -14, before QHS-PQ.
[13] abbreviates: listed as '1-day': probe cocktail before QHS-PQ (day -14).
[14] abbreviates: listed as '2-day': probe cocktail 1 hour after second oral dose of QHS-PQ (day 2).
Where [15] appears, read: listed as '2-day': probe cocktail after second dose of QHS-PQ.

With `CC(NC(C)(C)C)C(=O)c1cccc(Cl)c1` (centres unmarked) [BUP, Bupropion], the Cmax (commonly the highest concentration seen after dosing) is 328 ± 181 nM in data set [1] (setting [5]) and 306 ± 147 nM in data set [1] (setting [8]). The Tmax (in general, the time at which the peak concentration occurs) turned out to be 2.1 h in data set [1] (setting [5]) and 2.5 h in data set [1] (setting [8]). Besides, the CL/F was 62.2 mL/min/kg in data set [1] (setting [6]) and 63 mL/min/kg in data set [1] (setting [9]). For the same compound, the MRT – broadly, the average time that molecules of a dose stay in the body – in data set [1] (setting [7]) came to 6.8 ± 1.9 h; in data set [1] (setting [10]), 6.1 ± 1.7 h.
For the compound `C[C@@H]1CC[C@H]2[C@@H](C)C(=O)O[C@@H]3O[C@@]4(C)CC[C@@H]1[C@]32O4` [DeoxyQHS, Deoxyartemisinin], the “activity at CAR1/3” value with CAR1/3 is listed as “agonist”. In addition, in the data set on PXR, the “activity at PXR” value is “agonist”. Moreover, the stability in plasma result in data set [2] was “stable”. In addition, in data set [3] (1-day (first oral dose of QHS-PQ, 1.8 mg/kg QHS plus 10.6 mg/kg piperaquine), 14 healthy Chinese, plasma), the “AUC 0-t /dose” value is listed as 0.09 ± 0.05** h·kg·L^-1. Moreover, in data set [3] (1-day oral QHS-PQ, value (range)), the T max was 2.2 (1.25, 4.0) h. Besides, the “AUC 0-t /dose” value in data set [3] (2-day (second daily oral dose of QHS-PQ)) is 0.06 ± 0.04** h·kg·L^-1. Also, in data set [3] (2-day versus 1-day oral QHS-PQ), the “Geometric mean ratio (90% CI) of AUC 0-t /dose” value is 0.68 (0.58, 0.79)**; the “Geometric mean ratio (90% CI) of AUC M /AUC QHS” value was 1.18 (0.97, 1.43); the “Geometric mean ratio (90% CI) of C max” value is 0.78 (0.69, 0.89)*; the “Geometric mean ratio (90% CI) of CL/F” value was 1.68 (1.45, 1.95)**. Further, the “Geometric mean ratio (90% CI) of MRT” value in data set [3] (2-day versus 1-day oral QHS-PQ) is 0.89 (0.79, 0.99). Moreover, the “change of Tmax and MRT after repeated drug dosing” value in data set [3] (P > 0.05) is recorded as “did not change”. In data set [3] (human, po, 1-day oral QHS-PQ), the Cmax turned out to be 71 ± 46.1 nM and the MRT came out at 7.1 ± 0.6 h. In data set [3] (human, po, 2-day oral QHS-PQ), the Cmax was found to be 55.6 ± 33.3 nM and the MRT is 6.2 ± 1.5 h. In addition, in data set [3] (human, po, 1-day oral QHS-PQ, value (range)), the time of peak concentration (Tmax) was 1.3 to 4 h. Besides, in data set [3] (setting [11]), the time of peak concentration (Tmax) is 2.3 h. Besides, in data set [3] (in 13 out of 14 subjects, range 20.3-71.8%), the “decrease in AUC 0-t after multiple oral doses” value was found to be 34.7%. In addition, the “decrease of metabolic capability AUCdeoxy-QHS/AUCQHS after the second dose” value in data set [3] (in four subjects) is listed as 41.6%. Also, the “increase of metabolic capability AUCdeoxy-QHS/AUCQHS after the second dose” value in data set [3] (in six subjects) is on record as 1.6 fold. Further, the “increase of CL/F after the second dose” value in data set [3] (second versus first oral dose of QHS-PQ) was found to be 1.7 fold.
On to `Cc1ncc2n1-c1ccc(Cl)cc1C(c1ccccc1F)=NC2` [MDZ, midazolam], for which the results for the Cmax in data set [1] (setting [5]) and in data set [1] (setting [8]) were 206 ± 115 nM and 305 ± 115 nM, respectively. In addition, the time of peak concentration (Tmax) in data set [1] (setting [5]) turned out to be 1.3 h; in data set [1] (setting [8]), 0.8 h. For the same compound, the results for the CL/F in data set [1] (setting [6]) and in data set [1] (setting [9]) were 18.2 mL/min/kg and 11.7 mL/min/kg, respectively. Moreover, the values for the MRT in data set [1] (setting [7]) and in data set [1] (setting [10]) were 4.1 ± 0.7 h and 4.2 ± 0.7 h, respectively.
Consider `OCc1ncc2n1-c1ccc(Cl)cc1C(c1ccccc1F)=NC2` [OH-MDZ, α-hydroxymidazolam], for which, in data set [1], the “Geometric mean ratio (90% CI) of AUC 0-t /dose” value is listed as 4.99 (4.66, 5.33)**; the “Geometric mean ratio (90% CI) of C max” value is listed as 2.95 (2.44, 3.56)**; the “Geometric mean ratio (90% CI) of CL/F” value is 0.19 (0.18, 0.21)**; the “Geometric mean ratio (90% CI) of MRT” value is 1.14 (1.01, 1.28). Further, in data set [1] (setting [12]), the “AUC 0-t /dose” value amounted to 0.32 ± 0.09 kg·h/L. In data set [1] (setting [13]), the CL/F is 55.2 ± 14 mL/min/kg; the Cmax worked out at 82.3 ± 50.3 nM; the MRT was found to be 3.7 ± 1.0 h; the T max was 1.1 (0.3, 2.0) h. In addition, the “AUC 0-t /dose” value in data set [1] (setting [14]) was 1.60 ± 0.26** h·kg·L^-1. In data set [1] (setting [15]), the CL/F stood at 10.7 ± 1.83 mL/min/kg; the Cmax was 243 ± 82 nM; the mean residence time MRT was 4.2 ± 0.5 h; the T max is on record as 1.5 (0.8, 3.0) h.
Consider `C[C@@H]1CC[C@H]2[C@@H](C)C(=O)O[C@@H]3O[C@@]4(C)CC[C@@H]1[C@]32OO4` [QHS, Artemisinin, reference compound], for which the “dose-normalized AUC, reported range” value was 0.06 to 0.31 kg·h/L in data set [4] (healthy subjects and patients who received 500 mg of QHS); 0.33 to 0.49 kg·h/L in data set [4] (infected children, dose […]). Besides, the stability in plasma entry in data set [2] is recorded as “stable”. In addition, the CL/F in data set [3] (1-day oral QHS-PQ, dose/AUC0-t) is 164 ± 138 mL/min/kg; in data set [3] (human, plasma, po, CL/F, 1-day oral QHS-PQ, dose/AUC0-t), 163 mL/min/kg; in data set [3] (human, plasma, po, CL/F, 2-day oral QHS-PQ), 277 mL/min/kg. Moreover, in data set [3] (P > 0.05), the “change of Cmax, Tmax and MRT after repeated drug dosing” value is given as “did not change”. The “inter-individual variability (%CV) for AUC 0-t” value in data set [3] (after the first dose, range 6.9-122.7%) amounted to 43.5%. The Cmax in data set [3] (human, po, 1-day oral QHS-PQ) was found to be 304 ± 192 nM; in data set [3] (human, po, 2-day oral QHS-PQ), 221 ± 118 nM. Moreover, the MRT in data set [3] (human, po, 1-day oral QHS-PQ) came out at 3.2 ± 0.9 h; in data set [3] (human, po, 2-day oral QHS-PQ), 2.9 ± 0.9 h. Moreover, the Tmax in data set [3] (setting [11]) was 1.4 h. Also, the “decrease in AUC 0-t, second oral dose compared with the first dose” value in data set [3] (oral QHS-PQ, two consecutive days) stood at 35.2%.
Take (±)-hydroxybupropion [OH-BUP]: in data set [1], the “Geometric mean ratio (90% CI) of AUC 0-t /dose” value is 2.05 (1.83, 2.30)**; the “Geometric mean ratio (90% CI) of C max” value is 1.65 (1.51, 1.82)**; the “Geometric mean ratio (90% CI) of CL/F” value is 0.49 (0.43, 0.55)**; the “Geometric mean ratio (90% CI) of MRT” value was 1.04 (1.00, 1.07). The “AUC 0-t /dose” value in data set [1] (setting [12]) stood at 3.98 ± 1.45 kg·h/L. Further, in data set [1] (setting [13]), the CL/F was 4.83 ± 1.83 mL/min/kg; the Cmax came out at 518 ± 162 nM; the MRT is given as 19.4 ± 1.4 h; the T max was 5.2 (3.0, 11.0) h. For the same compound, the “AUC 0-t /dose” value in data set [1] (setting [14]) is listed as 8.22 ± 3.43** h·kg·L^-1. Further, in data set [1] (setting [15]), the CL/F came out at 2.33 ± 0.83 mL/min/kg; the Cmax was determined as 857 ± 245 nM; the MRT is 20.2 ± 1.5 h; the T max is 7.6 (3.0, 24.0) h.
